Measured values published in patent US8664186B2, “Stambomycin and derivatives, their production and their uses as drugs” (Universite de Lorraine, priority 2009, dated 2014).
Read-outs that look alike come from different tables or passages of the source.

What was measured:
[1] = system: CHO-K1 cells; assay: cytotoxicity using CHO-K1 cells; assay type: cell-based, Chinese hamster; settings: Cricetulus griseus, CHO-K1 ovary sane cell line
Experimental: (§1) Cytotoxicity was tested using CHO-K1 cells and anti-proliferative activity was examined using HT29 cells.
(§2) The effects were compared with Doxorubicin and Sodium butyrate.

[2] = system: HT29 cells; assay: anti-proliferative activity using HT29 cells; assay type: cell-based, human
Experimental: as §1, §2

Row | IC50 ([2]; HT-29, HT29 human colon adenocarcinoma, read-out: IC50 (μM) for HT29) | Structure (SMILES) | IC50 [1] | IC50 ([2]; Homo sapiens, HT-29, read-out: IC50 (μM) for HT29)
1 | 1.32 µM | COc1cccc2c1C(=O)c1c(O)c3c(c(O)c1C2=O)C[C@@](O)(C(=O)CO)C[C@@H]3O[C@H]1C[C@H](N)[C@H](O)[C@H](C)O1 [Doxorubicin] | 1.99 µM | 
2 |  | CCCC(=O)[O-].[Na+] [Sodium butyrate] |  | 4890 µM
